≈ marks a conversion by molar mass, not a printed value.
Legend:
S. aureus = assay: Susceptibility testing in liquid media (MIC assay) against S. aureus; assay type: cell-based; settings: 35° C. overnight (16 to 20 hours); for MIC: Staphylococcus aureus
Protocol: (§1) Compounds of this invention were tested for antimicrobial activity by susceptibility testing in liquid media. Such assays were performed within the guidelines of the latest NCCLS document governing such practices: “M7-A5 Methods for dilution Antimicrobial Susceptibility Tests for Bacteria that Grow Aerobically; Approved Standard—Fifth Edition (2000)”. Other publications such as “Antibiotics in Laboratory Medicine” (Edited by V. Lorian, Publishers Williams and Wilkins, 1996) provide essential practical techniques in laboratory antibiotic testing.
(§2) Several discrete bacterial colonies (3 to 7) from a freshly streaked plate were transferred to an appropriate rich broth medium such as MHB, supplemented where appropriate for the more fastidious organisms. This was grown overnight to high density followed by a 1 or 2-thousand-fold dilution to give an inoculation density of between 5×10^5 and 5×10^6 CFU per mL. Alternatively, the freshly picked colonies can be incubated at 37° C. for about 4 to 8 hours until the culture equals or exceeds a turbidity of a 0.5 McFarland standard (approximately 1.5×10^8 cells per mL) and diluted to give the same CFU per mL as above. In a more convenient method, the inoculum was prepared using a commercially available mechanical device (the BBL PROMPT System) that involves touching five colonies directly with a wand, containing crosshatch grooves at its bottom, followed by suspension of the bacteria in an appropriate volume of saline. Dilution to the appropriate inoculum cell density was made from this cell suspension. The broth used for testing consists of MHB supplemented with 50 mg per L of Ca^2+ and 25 mg per L of Mg^2+. Standard dilution panels of control antibiotics were made and stored as in the NCCLS standard M7-A5, the dilution range typically being in the 128 μg per mL to 0.015 μg per mL (by 2-fold serial dilution). The test compounds were dissolved and diluted fresh for experimentation on the same day; the same or similar ranges of concentration as above being used. The test compounds and controls were dispensed into a multiwell plate and test bacteria added such that the final inoculation was approximately 5×10^4 CFU per well and the final volume was 100 μL. The plates were incubated at 35° C. overnight (16 to 20 hours) and checked by eye for turbidity or quantitated with a multiwell plate reader. […] Such determinations were also compared to the appropriate tables contained in the above two publications to ensure that the range of antibacterial activity is within the acceptable range for this standardized assay.
(§3) The compound numbers correspond to the compound numbers in Table 1.

S. pneumoniae = assay: Susceptibility testing in liquid media (MIC assay) against S. pneumoniae; assay type: cell-based; settings: Streptococcus pneumoniae, 35° C. overnight (16 to 20 hours)
Protocol: as §1, §2, §3

| Compound | MIC (S. aureus) | MIC (S. pneumoniae) | MIC (Activity) against S. aureus (S. aureus) |
| --- | --- | --- | --- |
| CCNC(=O)Nc1nc2cc(-c3cncnc3)cc(C(=O)NC)c2[nH]1 [Compound I-7] | > 1 µg/mL | – | – |
| CCNC(=O)Nc1nc2cc(-c3cccnc3)cc(C(=O)CCc3ccccn3)c2[nH]1 [Compound I-31] | ≤ 0.5 µg/mL | ≤ 0.5 µg/mL | – |
| CCNC(=O)Nc1nc2cc(-c3cccnc3)cc(C(=O)CN(C)C)c2[nH]1 [Compound I-4] | – | > 1 µg/mL | – |
| CCNC(=O)Nc1nc2cc(-c3cc(C)n(Cc4ccccn4)c(=O)c3)cc(C(=O)OC)c2[nH]1 [Compound I-32] | ≤ 0.5 µg/mL | ≤ 0.5 µg/mL | – |
| CCNC(=O)Nc1nc2cc(-c3cccnc3)cc(/C(CC)=N/OC)c2[nH]1 [Compound I-38] | ≤ 0.5 µg/mL | ≤ 0.5 µg/mL | – |
| CCNC(=O)Nc1nc2cc(-c3cccnc3)cc(C(=O)CC)c2[nH]1 [Compound I-19] | ≤ 0.5 µg/mL | ≤ 0.5 µg/mL | – |
| CCNC(=O)Nc1nc2cc(-c3cccnc3)cc(C(=O)C3CCCC3)c2[nH]1 [Compound I-28] | ≤ 0.5 µg/mL | ≤ 0.5 µg/mL | – |
| CCNC(=O)Nc1nc2cc(-c3cccnc3)cc(C(=O)c3nccn3CC)c2[nH]1 [Compound I-29] | ≤ 0.5 µg/mL | ≤ 0.5 µg/mL | – |
| CCNC(=O)Nc1nc2cc(-c3cccnc3)cc(C(=O)NCc3ccccc3)c2[nH]1 [Compound I-17] | 0.5 to 1 µg/mL (≈ 1.21 to 2.41 µM) | ≤ 0.5 µg/mL | – |
| CCNC(=O)Nc1nc2cc(-c3cccnc3)cc(C(=O)NCCO)c2[nH]1 [Compound I-13] | > 1 µg/mL | – | – |
| CCNC(=O)Nc1nc2cc(-c3cccnc3)cc(C(=O)CC(C)C)c2[nH]1 [Compound I-24] | ≤ 0.5 µg/mL | ≤ 0.5 µg/mL | – |
| CCNC(=O)Nc1nc2cc(-c3cccnc3)cc(C(=O)C(C)C)c2[nH]1 [Compound I-22] | ≤ 0.5 µg/mL | ≤ 0.5 µg/mL | – |
| CCC/C(=N\OC)c1cc(-c2cccnc2)cc2nc(NC(=O)NCC)[nH]c12 [Compound I-39] | ≤ 0.5 µg/mL | ≤ 0.5 µg/mL | – |
| CCNC(=O)Nc1nc2cc(-c3cncnc3)cc(C(=O)CC)c2[nH]1 [Compound I-23] | ≤ 0.5 µg/mL | ≤ 0.5 µg/mL | – |
| CCNC(=O)Nc1nc2cc(-c3cccnc3)cc(C(=O)OC(C)C)c2[nH]1 [Compound I-33] | ≤ 0.5 µg/mL | ≤ 0.5 µg/mL | – |
| CCNC(=O)Nc1nc2cc(-c3cccnc3)c(F)c(C(=O)OC)c2[nH]1 [Compound I-3] | ≤ 0.5 µg/mL | – | – |
| CCNC(=O)Nc1nc2cc(-c3cccnc3)cc(C(=O)C3CCCCC3)c2[nH]1 [Compound I-11] | ≤ 0.5 µg/mL | ≤ 0.5 µg/mL | – |
| CCNC(=O)Nc1nc2cc(-c3ccn(C)c(=O)c3)c(F)c(C(=O)NC)c2[nH]1 [Compound I-36] | > 1 µg/mL | ≤ 0.5 µg/mL | – |
| 1-(7-Cyclohexanecarbonyl-5-pyridin-3-yl-1H-benzoimidazol-2-yl)-3-ethyl-urea [Compound I-14] | – | – | C (an MIC of greater than 1.0 μg/mL) |

| Compound | MIC (S. aureus) | MIC (S. pneumoniae) | MIC (Activity) against S. aureus (S. aureus) |
| --- | --- | --- | --- |
| CCNC(=O)Nc1nc2cc(-c3ccn(C)c(=O)c3)c(F)c(C(=O)OC)c2[nH]1 [Compound I-35] | ≤ 0.5 µg/mL | ≤ 0.5 µg/mL | – |
| CCCC(=O)c1cc(-c2cccnc2)cc2nc(NC(=O)NCC)[nH]c12 [Compound I-20] | ≤ 0.5 µg/mL | ≤ 0.5 µg/mL | – |
| CCNC(=O)Nc1nc2cc(-c3cccnc3)cc(C(=O)NC)c2[nH]1 [Compound I-16] | > 1 µg/mL | – | – |
| CCNC(=O)Nc1nc2cc(-c3cccnc3)cc(C(C)=O)c2[nH]1 [Compound I-18] | ≤ 0.5 µg/mL | ≤ 0.5 µg/mL | – |
| CCNC(=O)Nc1nc2cc(-c3cccnc3)cc(/C(=N\O)C3CCCC3)c2[nH]1 [Compound I-42] | ≤ 0.5 µg/mL | ≤ 0.5 µg/mL | – |
| CCNC(=O)Nc1nc2cc(-c3cccnc3)cc(C(=O)CCCCO)c2[nH]1 [Compound I-37] | 0.5 to 1 µg/mL (≈ 1.31 to 2.62 µM) | ≤ 0.5 µg/mL | – |
| CCNC(=O)Nc1nc2cc(-c3cccnc3)cc(/C(=N/OCC)C3CC3)c2[nH]1 [Compound I-41] | ≤ 0.5 µg/mL | ≤ 0.5 µg/mL | – |
| CCNC(=O)Nc1nc2cc(-c3cccnc3)cc(C(=O)OCC)c2[nH]1 [Compound I-34] | ≤ 0.5 µg/mL | ≤ 0.5 µg/mL | – |
| CCNC(=O)Nc1nc2cc(-c3cccnc3)c(F)c(C(=O)NC)c2[nH]1 [Compound I-6] | 0.5 to 1 µg/mL (≈ 1.4 to 2.81 µM) | – | – |
| CCNC(=O)Nc1nc2cc(-c3cccnc3)cc(/C(=N/O)C3CCCC3)c2[nH]1 [Compound I-43] | ≤ 0.5 µg/mL | ≤ 0.5 µg/mL | – |
| CCOC(=O)Nc1nc2cc(-c3cccnc3)cc(C(=O)CC)c2[nH]1 [Compound I-44, (7-Propionyl-5-pyridin-3-yl-1H-benzoimidazol-2-yl)-carbamic acid ethyl ester] | > 1 µg/mL | ≤ 0.5 µg/mL | – |
| CCNC(=O)Nc1nc2cc(-c3cccnc3)cc(C(=O)c3nccn3C)c2[nH]1 [Compound I-26] | ≤ 0.5 µg/mL | ≤ 0.5 µg/mL | – |
| CCNC(=O)Nc1nc2cc(-c3cccnc3)cc(C(=O)OC)c2[nH]1 [Compound I-1, 2-(3-Ethyl-ureido)-6-pyridin-3-yl-3H-benzoimidazole-4-carboxylic acid methyl ester] | ≤ 0.5 µg/mL | ≤ 0.5 µg/mL | – |
| CCNC(=O)Nc1nc2cc(-c3cccnc3)cc(/C(=N/OC)C3CC3)c2[nH]1 [Compound I-40, 1-[4-(Cyclopropyl-methoxyimino-methyl)-6-pyridin-3-yl-1H-benzoimidazol-2-yl]-3-ethyl-urea] | ≤ 0.5 µg/mL | ≤ 0.5 µg/mL | – |
| CCNC(=O)Nc1nc2cc(-c3cccnc3)cc(C(=O)Nc3cc(C)[nH]n3)c2[nH]1 [Compound I-15] | > 1 µg/mL | – | – |
| CCNC(=O)Nc1nc2cc(-c3cccnc3)cc(C(=O)C(C)CC)c2[nH]1 (centres unmarked) [Compound I-21] | ≤ 0.5 µg/mL | ≤ 0.5 µg/mL | – |
| CCNC(=O)Nc1nc2cc(-c3cncnc3)cc(C(=O)OC)c2[nH]1 [Compound I-5] | ≤ 0.5 µg/mL | ≤ 0.5 µg/mL | – |
| CCNC(=O)Nc1nc2cc(-c3cccnc3)cc(C(=O)C3CC3)c2[nH]1 [Compound I-25] | ≤ 0.5 µg/mL | ≤ 0.5 µg/mL | – |
| CCNC(=O)Nc1nc2cc(-c3cccnc3)cc(C(=O)c3cn(C)cn3)c2[nH]1 [Compound I-30] | > 1 µg/mL | ≤ 0.5 µg/mL | – |
